Source: patent US11851428B2, “Activator of TREK (TWIK RElated K+channels) channels” (ONO PHARMACEUTICAL CO., LTD., priority 2016, dated 2023)

Molecular target: T1, human TREK-1 (Homo sapiens, UniProt O95069)
T1 construct: expressed in transfected cells
T1 sequence (O95069 1-426): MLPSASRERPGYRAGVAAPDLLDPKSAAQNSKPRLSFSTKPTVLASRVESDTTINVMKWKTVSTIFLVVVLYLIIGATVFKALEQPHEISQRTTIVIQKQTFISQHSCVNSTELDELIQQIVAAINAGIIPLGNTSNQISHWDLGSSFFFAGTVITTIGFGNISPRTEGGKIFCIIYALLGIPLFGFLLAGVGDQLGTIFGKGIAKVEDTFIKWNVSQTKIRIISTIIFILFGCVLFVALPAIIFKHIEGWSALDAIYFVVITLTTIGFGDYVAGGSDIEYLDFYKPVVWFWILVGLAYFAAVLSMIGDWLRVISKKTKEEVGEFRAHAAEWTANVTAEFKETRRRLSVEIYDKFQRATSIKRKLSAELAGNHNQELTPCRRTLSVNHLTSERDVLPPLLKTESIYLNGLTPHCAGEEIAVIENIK
Experiment: thallium flux assay (TREK1 activation normalized to BL-1249)
Assay type: cell-based
Details: normalized to 10 μM BL-1249, CHO-K1 cells stably expressing human TREK-1; for activation at 10 µM / activation at 30 µM: read-out: TREK1 activation RBL-1249 (%)
Protocol: The term “thallium flux assay” herein refers to a fluorescence-based assay used to monitor the activity of TREK channels. Thallium is a congener of potassium that readily fluxes through the pore of TREK channels. Thallium flux is measured using a commercially available, thallium-sensitive fluorescent dye called Thallos. The detail method is described below.
Method 1 (Thallium Flux Assay);
CHO-K1 cells stably expressing human TREK-1 or HEK293 cells stably expressing human TREK-2 are plated in 384-well plates, cultured overnight, loaded with Thallos dye the following day, treated with test compounds for 10 min, and then treated with thallium stimulus buffer to initiate thallium flux. The change in fluorescence at 25 seconds after thallium addition is normalized to baseline fluorescence (fluorescent intensity at 25 sec after Tl^+ addition)/(average of fluorescent intensity at pre-read).

[1] = concentration of Example compound 10 μM
[2] = concentration of Example compound 30 μM

SMILES | activation at 10 µM [1] | further results
O=C(NCc1ccc(OC(F)(F)F)cc1)c1ccc(-n2cncn2)cc1 [4-(1H-1,2,4-triazol-1-yl)-N-[4-(trifluoromethoxy)benzyl]benzamide] | 63% | 
Cc1cc(OC(F)(F)F)ccc1CNC(=O)c1ccc2ncnn2c1 [Example 1, N-[2-Methyl-4-(trifluoromethoxy)benzyl]-[1,2,4]triazolo[1,5-a]pyridine-6-carboxamide] | 88% | 
O=C(NCc1ccc(OC(F)(F)F)cc1)c1ccn2cnnc2c1 [Example 1-3, N-[4-(trifluoromethoxy)benzyl][1,2,4]triazolo(4,3-a]pyridine-7-carboxamide] | 28% | 
O=C(NCc1ccc(Cl)cc1Cl)c1ccc2ncnn2c1 [Example 1-5, N-(2,4-dichlorobenzyl)[1,2,4]triazolo[1,5-a]pyridine-6-carboxamide] | 44% | 
O=C(NCc1ccc(Cl)cc1Cl)c1ccc2[nH]ncc2c1 [Example 1-6, N-(2,4-dichlorobenzyl)-1H-indazole-5-carboxamide] | 26% | 
O=C(NCc1ccc(OC(F)(F)F)cc1F)c1ccnc(F)c1 [Example 1-12, 2-fluoro-N-[2-fluoro-4-(trifluoromethoxy)benzyl]isonicotinamide] |  | activation at 30 µM [2]: 63%
O=C(NCc1ccc(OC(F)(F)F)cc1F)c1ccc(F)nc1 [Example 1-13, 6-fluoro-N-[2-fluoro-4-(trifluoromethoxy)benzyl]nicotinamide] | 65% | 
O=C(NCc1ccc(OC(F)(F)F)cc1)c1ccn2ncnc2c1 [Example 1-21, N-[4-(trifluoromethoxy)benzyl][1,2,4]triazolo[1,5-a]pyridine-7-carboxamide] |  | activation at 30 µM [2]: 73%
O=C(NCc1ccc(OC(F)(F)F)c(F)c1)c1ccc2ncnn2c1 [Example 1-23] |  | TREK1 activation RBL-1249 (%) [1]: 63%
COc1cc(OC(F)(F)F)ccc1CNC(=O)c1ccc2ncnn2c1 [Example 1-26, N-[2-methoxy-4-(trifluoromethoxy)benzyl][1,2,4]triazolo[1,5-a]pyridine-6-carboxamide] |  | activation at 30 µM [2]: 74%
O=C(NCc1ccc(C(F)(F)F)cc1Cl)c1cccc2ncnn12 [Example 1-27, N-[2-chloro-4-(trifluoromethyl)benzyl][1,2,4]triazolo[1,5-a]pyridine-5-carboxamide] | 91% | 
O=C(NCc1ccc(Br)cc1Cl)c1ccc2ncnn2c1 [Example 1-28] |  | TREK1 activation RBL-1249 (%) [1]: 99%
O=C(NCc1ccc(OC(F)(F)F)cc1F)c1ccn2cnnc2c1 [Example 1-29, N-[2-fluoro-4-(trifluoromethoxy)benzyl][1,2,4]triazolo[4,3-a]pyridine-7-carboxamide] | 80% | 
COc1cc(OC(F)(F)F)ccc1CNC(=O)c1ccn2cnnc2c1 [Example 1-30, N-[2-methoxy-4-(trifluoromethoxy)benzyl][1,2,4]triazolo[4,3-a]pyridine-7-carboxamide] |  | activation at 30 µM [2]: 76%
O=C(NCc1ccc(C(F)(F)F)cc1Cl)c1ccn2cnnc2c1 [Example 1-31, N-[2-chloro-4-(trifluoromethyl)benzyl][1,2,4]triazolo[4,3-a]pyridine-7-carboxamide] | 90% | 
O=C(NCc1ccc(OC(F)(F)F)cc1)c1cc2cccnc2s1 [Example 1-33, N-(4-(trifluoromethoxy)benzyl]thieno[2,3-b]pyridine-2-carboxamide] | 26% | 
O=C(NCc1ccc(OC(F)(F)F)cc1)c1cnc(C(F)(F)F)nc1 [Example 1-34, N-[4-(trifluoromethoxy)benzyl]-2-(trifluoromethyl)-5-pyrimidinecarboxamide] | 33% | 
O=C(NCc1ccc(OC(F)(F)F)cc1)c1ccc2nccnc2c1 [Example 1-36, N-[4-(trifluoromethoxy)benzyl]-6-quinoxalinecarboxamide] | 26% | 
O=C(NCc1ccc(OC(F)(F)F)cc1)c1cn[nH]c(=O)c1 [Example 1-42, 6-oxo-N-[4-(trifluoromethoxy)benzyl]-1,6-dihydro-4-pyridazinecarboxamide] |  | activation at 30 µM [2]: 41%
O=C(NCc1ccc(OC(F)(F)F)cc1)c1nc2ncccn2n1 [Example 1-44, N-[4-(trifluoromethoxy)benzyl][1,2,4]triazolo[1,5-a]pyrimidine-2-carboxamide] |  | activation at 30 µM [2]: 25%

SMILES | activation at 10 µM [1] | further results
Cc1cc(OC(F)(F)F)ccc1CNC(=O)c1ccn2cnnc2c1 [Example 1-45, N-[2-methyl-4-(trifluoromethoxy)benzyl][1,2,4]triazolo[4,3-a]pyridine-7-carboxamide] | 85% | 
Cc1cc(OC(F)(F)F)ccc1CNC(=O)c1cc2ncccn2n1 [Example 1-46, N-[2-methyl-4-(trifluoromethoxy)benzyl]pyrazolo[1,5-a]pyrimidine-2-carboxamide] | 67% | 
O=C(NCc1ccc(C(F)(F)F)cc1Cl)c1cc2ncccn2n1 [Example 1-47, N-(2-chloro-4-(trifluoromethyl)benzyl]pyrazolo[1,5-a]pyrimidine-2-carboxamide] | 63% | 
O=C(NCc1ccc(OC(F)(F)F)cc1F)c1cc2ncccn2n1 [Example 1-50, N-[2-fluoro-4-(trifluoromethoxy)benzyl]pyrazolo[1,5-a]pyrimidine-2-carboxamide] | 66% | 
COc1cc(OC(F)(F)F)ccc1CNC(=O)c1cc2ncccn2n1 [Example 1-51, N-[2-methoxy-4-(trifluoromethoxy)benzyl]pyrazolo[1,5-a]pyrimidine-2-carboxamide] | 65% | 
O=C(NCc1ccc(OC(F)(F)F)c(F)c1)c1cc2ncccn2n1 [Example 1-52, N-[3-fluoro-4-(trifluoromethoxy)benzyl]pyrazolo[1,5-a]pyrimidine-2-carboxamide] | 75% | 
Cc1cc(OC(F)(F)F)ccc1CNC(=O)c1cc(F)nc(F)c1 [Example 1-55, 2-6-difluoro-N-[2-methyl-4-(trifluorothoxy)benzyl]isonicotinamide] |  | TREK1 activation RBL-1249 (%) [2]: 38%
Cc1cc(OC(F)(F)F)ccc1CNC(=O)c1nc2ncccn2n1 [Example 1-61, N-[2-methyl-4-(trifluoromethoxy)benzyl][1,2,4]triazolo[1,5-a]pyrimidine-2-carboxamide] |  | activation at 30 µM [2]: 48%
O=C(NCc1ccc(OC(F)(F)F)cc1)c1ccc2[nH]ncc2c1 [Example 1-71, N-[4-(trifluoromethoxy)benzyl]-1H-indazole-5-carboxamide] | 19% | 
O=C(NCc1ccc(OC(F)(F)F)cc1)c1ccc2[nH]cnc2c1 [Example 1-72, N-[4-(trifluoromethoxy)benzyl]-1H-benzimidazole-5-carboxamide] |  | activation at 30 µM [2]: 60%
O=C(NCc1ccc(Br)cc1Cl)c1ccc2[nH]nnc2c1 [Example 1-76, N-[(4-bromo-2-chlorophenyl)methyl]-1H-benzotriazole-5-carboxamide] | 101% | 
O=C(NCc1ccc(OC(F)(F)F)cc1F)c1cnc2ccnn2c1 [Example 1-81, N-[[2-fluoro-4-(trifluoromethoxy)phenyl]methyl]pyrazolo[1,5-a]pyrimidine-6-carboxamide] | 78% | 
O=C(NCc1ccc(Br)cc1Cl)c1ccc2snnc2c1 [Example 1-86, N-[(4-bromo-2-chlorophenyl)methyl]-1,2,3-benzothiadiazole-5-carboxamide] | 75% | 
Cc1cc(OC(F)(F)F)ccc1CNC(=O)c1ccn2ccnc2c1 [Example 1-87, N-[[2-methyl-4-(trifluoromethoxy)phenyl]methyl]imidazo[1,2-a]pyridine-7-carboxamide] | 72% | 
N#Cc1cc(OC(F)(F)F)ccc1CNC(=O)c1ccc2ncnn2c1 [Example 1-89, N-[[2-cyano-4-(trifluoromethoxy)phenyl]methyl]-[1,2,4]triazolo[1,5-a]pyridine-6-carboxamide] | 70% | 
O=C(NCc1ccc(OC(F)F)cc1Cl)c1ccc2ncnn2c1 [Example 1-92, N-[[2-chloro-4-(difluoromethoxy)phenyl]methyl]-[1,2,4]triazolo[1,5-a]pyridine-6-carboxamide] | 70% | 
COc1cc(OC(F)(F)F)ccc1CNC(=O)c1ccc(-n2cncn2)cc1 [Example 2-1, N-[2-methoxy-4-(trifluoromethoxy)benzyl]-4-(1H-1,2,4-triazol-1-yl)benzamide] | 54% | 
O=C(NCc1ccc(S(F)(F)(F)(F)F)cc1)c1ccc(-n2cncn2)cc1 [Example 2-2, N-[4-(pentafluoro-λ^6-sulfanyl)benzyl]-4-(1H-1,2,4-triazol-1-yl)benzamide] | 41% | 
O=C(NCc1ccc(OC(F)(F)F)c(F)c1)c1ccc(-n2cncn2)cc1 [Example 2-3, N-[3-fluoro-4-(trifluoromethoxy)benzyl]-4-(1H-1,2,4-triazol-1-yl)benzamide] | 72% | 
